Results reported in patent publication US20210147811A1, “METHODS FOR IN VITRO EXPANSION OF ADULT TISSUE STEM CELLS” (CEDARS-SINAI MEDICAL CENTER, priority 2018, published 2021).

Columns and labels:
freshly isolated cells = experiment: Freshly isolated cells cultured with small molecules at different time points (proliferation); format: cell-based; conditions: different time points (FIG. 2)
Text: (§1) FIG. 1. Experimental design. Preconditioning of donor cells, including addition of small molecules such as ROCK inhibitor, pifithrin α, or combined together, and generation of organoids.
FIG. 2. Freshly isolated cells cultured with small molecules at different time points.

[1] = tested on: freshly isolated murine distal total epithelial cells; experiment: 3D organoid culture of freshly isolated murine distal total epithelial cells; format: cell-based
Text: as §1
FIG. 3. […] Addition of the TGF-β inhibitor, SB 431542 to the culture medium increases the % colony forming efficiency of freshly isolated murine lung epithelial cells. Addition of Pifithrin α causes an increase in organoids size, while addition of ROCKi causes an increase in the colony forming efficiency.
FIG. 13. Effect of p53 and ROCKi inhibition on murine freshly isolated distal total epithelial cells in (+SB431542). Addition of both ROCKi and Pifithrin alpha (in presence of SB431542) increases the colony forming efficiency of freshly isolated murine distal total epithelial cells (isolated from the lung without trachea). […] Pifithrin alpha also causes an increase in the size of the organoids (C). […] The drop in mean diameter of the Pifithrin alpha+ROCKi group is likely due to space constraints because of the large number of organoids per well.
Further described herein is a cell culture including a quantity of human stem cells, or stem cell derived cells in a cell culture media including at least one molecule including: a RHO-kinase (ROCK) inhibitor, SMAD inhibitor, and p53 inhibitor. In other embodiments, the RHO-kinase inhibitor is Y27632 and the p53 inhibitor is Pifithrin α. In other embodiments, the stem cells are adult stem cells. In other embodiments, the stem cell derived cells are lung epithelial cells. In various embodiments, the aforementioned inhibitors are at a concentration of 0.1-1 uM, 1-5 uM, 5-10 uM, 10-25 uM, 25-50 uM, or 50 uM or more. In various embodiments, the p53 inhibitor is Pifithrin-alpha. For example, this includes a media formulated as follows: 5 mL FBS, 500 uL ITS (100×), 50 uL Fungizone, 500 uL Pen/Strep (100×), DMEM/F12 up to 50 mL, 5 uL SB431542, Pifithrin-alpha 10 uM, ROCKi (Y-27632 dihydrochloride)—10 uM. Also described herein is a quantity of organoids including cells made by the aforementioned methods. In various embodiments, the organoids include proximal and/or distal cells. In various embodiments, the distal cells are alveolar type II progenitors and/or Scgb1a1 positive club progenitor cells.

lung stem cells = experiment: In vitro organoid assays of clonal expansion of lung stem cells; format: cell-based; conditions: combination of p53 inhibitor with ROCK inhibitor (and TGFb inhibitors)
Text: Methods have been developed for expansion of stem cells using a combination of irradiated NIH-3T3 fibroblasts and a ROCK inhibitor (Y27632). […] Preliminary studies by the Inventors have shown that pharmacologic inhibition of p53 results in greater clonal expansion of lung stem cells compared to use of ROCK inhibitor Y27632 alone. Effects of combined treatment with Pifithrin-α and Y27632 are additive. Future studies will determine reversibility of Pifirthrin-α effects on stem cell expansion and differentiation. This includes: 1) validating that the observed increase in clonogenic potential of lung stem cells is the result of stem cell expansion, 2) application of the aforementioned pharmacologic intervention during in vitro stem cell expansion enhances their viability following cryopreservation, 3) that application of the aforementioned pharmacologic intervention during in vitro stem cell expansion enhances to functionally engraft into lung tissue following orthotopic lung transplantation, 4) that stem cells expanded under these conditions retain full capacity for differentiation into specialized lung epithelial cell types and 5) that established culture conditions can be used to expand human lung stem cells. […]

p53 = biological target: T1, p53 (Homo sapiens, UniProt P04637); conditions: cited from earlier work
T1 construct: host or cells: neuronal cells (not further described)
T1 sequence (P04637 whole entry, species assumed): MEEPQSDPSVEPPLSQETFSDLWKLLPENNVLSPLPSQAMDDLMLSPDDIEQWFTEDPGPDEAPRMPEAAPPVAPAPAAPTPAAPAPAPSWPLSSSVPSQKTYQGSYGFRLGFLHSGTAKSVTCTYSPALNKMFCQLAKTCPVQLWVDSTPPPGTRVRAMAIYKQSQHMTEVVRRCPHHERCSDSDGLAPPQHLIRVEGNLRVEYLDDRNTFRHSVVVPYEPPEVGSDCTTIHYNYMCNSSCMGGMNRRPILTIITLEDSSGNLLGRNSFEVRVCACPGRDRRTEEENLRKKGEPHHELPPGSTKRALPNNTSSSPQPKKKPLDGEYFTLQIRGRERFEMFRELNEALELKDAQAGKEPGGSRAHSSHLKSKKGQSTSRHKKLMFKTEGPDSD

[2] = tested on: freshly isolated murine proximal total epithelial cells; experiment: Organoid culture of murine tracheal progenitor (basal) cells; format: cell-based
Experimental: FIG. 18. Effect of ROCK and P53 inhibition on murine tracheal progenitor (basal) cells. Addition of both ROCKi (in presence of SB431542) increases the colony forming efficiency of freshly isolated murine proximal total epithelial cells (isolated from the murine trachea).
Distal progenitor cells were cultured as 3D organoids for 14 days in presence of Pifithrin-alpha, ROCKi and SB431542 followed by culture for 7 days in media without all three inhibitors. […] Addition of ROCKi (in presence of SB431542) increases the colony forming efficiency of freshly isolated club cells (regional stem cells which maintain certain cell types in the bronchiolar epithelium) whereas addition of Pifithrin alpha (in presence of SB431542) increases the size of Scgb1a1-derived organoids. Addition of both ROCKi (in presence of SB431542) increases the colony forming efficiency of freshly isolated murine proximal total epithelial cells (isolated from the murine trachea).

[3] = freshly isolated cells, in presence of SB431542 (FIG. 13)

With `Cc1ccc(C(=O)Cn2c3c(sc2=N)CCCC3)cc1` [Pifithrin α] the proliferation of cells (freshly isolated cells) was “have an effect on proliferation”, the colony forming efficiency [1, 3] was “increases” and the “size of the organoids (mean diameter)” value [1, 3] was “increase”. The “survival and proliferation of the stem cells (inferred from CFE and organoid size)” value ([1]; freshly isolated distal cells, FIG. 13) was “increase survival and proliferation”, the organoids size ([1]; freshly isolated murine lung epithelial cells (FIG. 3)) was “increase” and the “effect of combined use on clonal expansion / clonogenic potential of lung stem cells” value (lung stem cells) was “additive”. The “protection against p53-induced neuronal cell death” value (p53) was “protection”, the colony forming efficiency ([2]; cells isolated from the murine trachea, in presence of SB431542) was “does not show a significant effect” and the “survival of proximal and distal progenitors (inferred from colony forming ability)” value ([2]; comparison of proximal and distal progenitor cell types) was “specific to distal stem cells”.
